Test results taken from patent US6395735B2, “Pharmaceutical compounds” (Eli Lilly and Company, priority 1997, dated 2002).

Legend:
Type in all cases: cell-based
human m1 receptor = biological target: T1, human m1 receptor (Homo sapiens, UniProt P11229); assay: m1 primary assay: arachidonic acid release in CHO-m1 cells
T1 construct: expressed in transfected cells; host or cells: CHO (Chinese hamster) cells
T1 sequence (P11229 1-460): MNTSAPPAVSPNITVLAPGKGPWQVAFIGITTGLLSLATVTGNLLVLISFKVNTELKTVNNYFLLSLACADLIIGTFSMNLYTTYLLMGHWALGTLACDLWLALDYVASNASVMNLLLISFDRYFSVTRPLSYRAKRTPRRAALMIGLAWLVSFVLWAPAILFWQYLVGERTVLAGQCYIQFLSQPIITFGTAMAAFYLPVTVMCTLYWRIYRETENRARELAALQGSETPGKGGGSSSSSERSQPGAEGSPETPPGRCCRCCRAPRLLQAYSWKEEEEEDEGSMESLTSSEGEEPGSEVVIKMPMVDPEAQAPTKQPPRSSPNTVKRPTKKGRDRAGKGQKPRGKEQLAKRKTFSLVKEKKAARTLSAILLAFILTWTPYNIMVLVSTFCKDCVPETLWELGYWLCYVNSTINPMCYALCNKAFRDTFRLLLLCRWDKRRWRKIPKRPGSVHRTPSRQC
Method: CHO (Chinese hamster transfected with the human m1 receptor (CHO-m1) were grown to confluency in flasks using Dulbecco's Modified Eagle Medium (DMEM) containing 10% fetal bovine serum. Cells were detached with 0.05% trypsin, 0.53 mM EDTA. Cells were collected after centrifugation in a Beckman centrifuge at 1000 rpm for 10 minutes, diluted with culture medium (400,000 cells/ml) Aarachidonic acid was added to the cell solution at a 1:2000 ratio of a 1 mCi/ml stock and cells were plated at 40,000 cells per well into 96 well plates and incubated for 18 to 24 hours at 37 C and 5% CO2. Following the incubation, the medium was removed and the cells were washed with D-ME medium containing 2 mg/mL of fatty acid free BSA (250 L/well). The test compound of interest was diluted in D-ME-BSA and added to each well (150 L/well), incubated for 120 minutes at 37 C in 5% CO2. 80 µL of supernatant was transferred to Wallac 96 well plates containing 110 µL/well of Supermax scintillation cocktail at pH 9.0. Plates were counted in a Wallae microbeta counter.
Representative results from the m1 primary assay are as follows: […]

A9L-m1 = biological target: T2, A9L-m1 (Homo sapiens, UniProt P11229); assay: m1 secondary assay: PI stimulation in A9L-m1; conditions: for Emax: A9L-m1, relative to carbachol, read-out: Pl stim. A9L-m1 % Max of carbachol; for EC50: A9L-m1, read-out: ED-50 Pl stim A9L-m1, nm
T2 sequence (P11229 1-460): T1 sequence (P11229 1-460)

human m4 receptors = biological target: T3, human m4 receptors (Homo sapiens, UniProt P08173); assay: Stimulation of cyclic AMP production in pertussis toxin-treated CHO-m4 cells; conditions: forskolin present
T3 construct: expressed in transfected cells; host or cells: CHO K1 cells
T3 sequence (P08173 whole entry): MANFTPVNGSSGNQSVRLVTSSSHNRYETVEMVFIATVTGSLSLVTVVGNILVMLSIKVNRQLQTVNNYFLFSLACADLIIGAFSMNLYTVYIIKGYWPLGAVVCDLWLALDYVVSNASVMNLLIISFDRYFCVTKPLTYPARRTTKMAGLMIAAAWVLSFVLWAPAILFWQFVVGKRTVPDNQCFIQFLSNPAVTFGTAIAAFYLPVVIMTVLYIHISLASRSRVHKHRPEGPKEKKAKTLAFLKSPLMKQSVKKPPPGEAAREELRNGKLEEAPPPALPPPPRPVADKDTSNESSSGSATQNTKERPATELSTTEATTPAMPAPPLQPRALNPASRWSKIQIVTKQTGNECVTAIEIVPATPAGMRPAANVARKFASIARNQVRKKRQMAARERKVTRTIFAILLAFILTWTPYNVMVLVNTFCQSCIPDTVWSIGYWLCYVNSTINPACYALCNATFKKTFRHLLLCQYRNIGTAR
Method: Cyclic AMP Accumulation in Pertussis Toxin-Treated CHO m4 Cells. CHO K1 cells transfected with human m4 receptors were grown to near confluency in T-150 flasks using Dulbecco's Modified Eagle Medium (DMEM) containing 10% fetal bovine serum. Cells were detached with 0.05% trypsin, 0.53 mM EDTA, and were suspended in medium containing 100 ng/ml pertussis toxin. Cells were plated at 30,000 cells per well into 96 well plates. Eighteen to twenty hours later the medium was removed and the cells were washed with serum-bee medium. Attached cells were incubated at 37 C for one hour after addition of […] of serum free DMEM containing 1 mM 3-isobutyl-1-methylxanthine and 1 mM forskolin plus or minus drugs being tested. Incubations were terminated with […] per well of serum free DMEM containing 0.3% triton-X-100. After stopping incubations the plates were allowed to sit for 20 minutes to extract cAMP and samples were then diluted 2.5-fold and were assayed using the scintillation proximity assay of Amersham (Arlington Heights, Ill.).
Representative results from the M4 assay are as follows
Stimulation of cyclic AMP production in CHO-m4 cells.

SMILES	Max. % activity @ 5 μM (human m1 receptor) [%]	% Maximum Stimulation Compared to Oxotremorine-M (human m4 receptors) [%]	also measured
O=C(N[C@@H]1c2cc(/N=C/N3CCOCC3)ccc2C[C@H]1O)c1ccc(-c2ccccc2)cc1 [Compound 119]	66.4	–	–
CN(C)/C=N/c1ccc2c(c1)C(NC(=O)c1ccc(Cl)c(Cl)c1)C(O)C2.Cl (stereo not drawn) [Compound 127]	69.8	–	–
CN(C)/C=N/c1ccc2c(c1)[C@@H](NC(=O)c1ccc(Cl)cc1)[C@H](O)C2 [Compound 118]	57.4	–	–
Cc1ccc(C(=O)NC2c3cc(/N=C/N4CCCC4)ccc3C[C@@H]2O)cc1I (stereo partly drawn) [Compound 130]	–	–	Emax (A9L-m1): 64%; EC50 (A9L-m1): 9.2 nM
Cc1ccc(C(=O)NC2c3cc(/N=C/N4CCCC4)ccc3C[C@@H]2O)cc1Br (stereo partly drawn) [Compound 132]	–	–	Emax (A9L-m1): 59%; EC50 (A9L-m1): 183 nM
O=C(N[C@@H]1c2cc(/N=C/N3CCCC3)ccc2C[C@H]1O)c1ccc(Cl)c(Cl)c1 [Compound 121]	45.4	–	–
CN(C)/C=N/c1ccc2c(c1)C(NC(=O)c1cccc(C(F)(F)F)c1)C(O)C2.Cl (stereo not drawn) [Compound 126]	102.2	–	–
C/C(=N\c1ccc2c(c1)C(NC(=O)c1ccc(Cl)c(Cl)c1)C(O)C2)N(C)C (stereo not drawn) [Compound 128]	–	–	Emax (A9L-m1): 59.2%; EC50 (A9L-m1): 95.3 nM
CN1CCC/C1=N\c1ccc2c(c1)C(NC(=O)c1ccc(-c3ccccc3)cc1)[C@H](O)C2 (stereo partly drawn) [Compound 125]	114.0	–	–
O=C(NC1c2cc(/N=C/N3CCCC3)ccc2C[C@@H]1O)c1ccc(F)c(Cl)c1 (stereo partly drawn) [Compound 133]	–	–	Emax (A9L-m1): 40%; EC50 (A9L-m1): 190 nM
O=C(N[C@@H]1c2cc(/N=C/N3CCCC3)ccc2C[C@H]1O)c1ccc(-c2ccccc2)cc1 [Compound 120]	92.5	–	–
O=C(NC1c2cc(/N=C/N3CCCC3)ccc2C[C@@H]1O)c1ccc(F)c(Br)c1 (stereo partly drawn) [Compound 131]	–	–	Emax (A9L-m1): 70.5%; EC50 (A9L-m1): 43.6 nM
C/C(=N\c1ccc2c(c1)C(NC(=O)c1cccc(C(F)(F)F)c1)C(O)C2)N(C)C (stereo not drawn) [Compound 124]	82.2	–	–
O=C(NC1c2cc(/N=C/N3CCCC3)ccc2CC1O)c1cccc(C(F)(F)F)c1 (stereo not drawn) [Compound 123]	76.7	–	–
Cc1cc(C(=O)NC2c3cc(/N=C/N4CCCC4)ccc3C[C@@H]2O)ccc1Br (stereo partly drawn) [Compound 129]	–	–	Emax (A9L-m1): 42%; EC50 (A9L-m1): 41.3 nM
O=C(NC1c2cc(N=CN3CCCC3)ccc2CC1O)c1cc(F)c(F)c(F)c1 (stereo not drawn) [Compound 39]	–	43	–
O=C(NC1c2cc(/N=C/N3CCCC3)ccc2C[C@H]1O)c1ccc(Cl)cc1 (stereo partly drawn) [Compound 122]	80.9	–	–
N#Cc1cccc(C(=O)NC2c3cc(N=CN4CCCC4)ccc3CC2O)c1 (stereo not drawn) [Compound 38]	–	<20	–
O=C(N[C@@H]1c2cc(N=CN3CCCCC3)ccc2C[C@H]1O)c1cc(Cl)cc(Cl)c1 [Compound 97]	–	36	–
O=C(NC1c2cc(/N=C/N3CCCC3)ccc2C[C@H]1O)c1ccc(-c2ccccc2)cc1 (stereo partly drawn) [Compound 134]	75.9	–	–
O=C(NC1c2cc(N=CN3CCCC3)ccc2CC1O)C1CCC1 (stereo not drawn) [Compound 41]	–	<20	–
CN(C)C=Nc1ccc2c(c1)[C@@H](NC(=O)c1cc3ccccc3s1)[C@H](O)C2 [Compound 69]	–	14	–
O=C(NC1c2cc(N=CN3CCCC3)ccc2CC1O)c1cc(Cl)cc(Cl)c1 (stereo not drawn) [Compound 14]	–	100	–
O=C(NC1c2cc(N=CN3CCCC3)ccc2CC1O)c1cccnc1Cl (stereo not drawn) [Compound 12]	–	26	–
O=C(NC1c2cc(N=CN3CCCC3)ccc2CC1O)c1ccc(F)c(F)c1F (stereo not drawn) [Compound 33]	–	45	–
CN(C)C=Nc1ccc2c(c1)[C@@H](NC(=O)c1ccccc1)[C@H](O)C2 [Compound 57]	–	5	–
COc1cccc(C(=O)NC2c3cc(N=CN4CCCC4)ccc3CC2O)c1 (stereo not drawn) [Compound 34]	–	45	–
